Counter-ions that a name gives are not always drawn. Each block holds one compound with its values, some of them ahead of it.
Key:
[1] = solid-state stability of the freeze-dried amorphous form upon standing; type: physicochemical; conditions: amorphous form prepared by freeze-drying
Text: WO 2008/040816 discloses an amorphous form of asenapine maleate, prepared via spray-drying or freeze-drying processes.

[2] = stability of the polymorphic forms at room temperature; type: physicochemical; conditions: solid form
[3] = micronization step starting from the monoclinic form; cited from earlier work

Compound: CN1C[C@H]2c3ccccc3Oc3ccc(Cl)cc3[C@@H]2C1 [amorphous form, asenapine maleate]
stability of solid form upon standing [1]: not stable, and spontaneously converts into Form H upon standing

stability at room temperature [2]: stable at room temperature
Compound: CN1C[C@H]2c3ccccc3Oc3ccc(Cl)cc3[C@@H]2C1 [Form G, asenapine maleate]

Compound: CN1C[C@H]2c3ccccc3Oc3ccc(Cl)cc3[C@@H]2C1 [Form H, asenapine maleate]
polymorphic form obtained after micronization [3]: an unpredictable mixture of Form H and Form L is obtained

Source: patent US8933114B2, “Polymorphic forms of asenapine maleate and processes for their preparation” (Chemo Iberica, S.A., priority 2010, dated 2015)
